Paper PMC5065099 (Chemical biology & drug design, 2016)
Read-outs that look alike come from different tables or passages of the source.

How the values were obtained:
AQP1 [1] = molecular target: T1, AQP1 (Homo sapiens, UniProt P29972); type: biochemical
T1 sequence (P29972 1-269): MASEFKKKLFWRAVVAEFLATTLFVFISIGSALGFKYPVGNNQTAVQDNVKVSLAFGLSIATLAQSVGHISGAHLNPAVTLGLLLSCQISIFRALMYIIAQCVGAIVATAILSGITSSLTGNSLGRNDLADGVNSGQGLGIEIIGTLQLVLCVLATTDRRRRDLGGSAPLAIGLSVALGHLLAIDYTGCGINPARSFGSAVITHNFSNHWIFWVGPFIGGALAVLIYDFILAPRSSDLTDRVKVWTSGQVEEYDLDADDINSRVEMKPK

AQP1 [2] = conditions: Xenopus oocytes; cited from earlier work

| Structure (SMILES) | reduction in water transport (inhibitory action) (AQP1 [1]; hypotonic shock, compounds at final 75 μM, HgCl2 50 μM) | reduction in water transport (inhibitory action) (AQP1 [1]) | inhibition of AQP1 water transport (AQP1 [2]) |
| --- | --- | --- | --- |
| [Cl][Hg][Cl] [HgCl2, mercuric chloride] | highly sensitive | – | – |
| CC[N+](CC)(CC)CC [TEA, tetraethylammonium] | – | ineffective | no inhibition |
| CC(=O)Nc1nnc(S(N)(=O)=O)s1 [acetazolamide] | – | – | no inhibition |
